From patent US7153863B2, “Therapeutic compounds based on pyrazolopyridline derivatives” (SmithKline Beecham Corporation, priority 2002, dated 2006)

system: HSV-1; test: HSV-1 infection of Vero 76 cells, HSV DNA hybridization capture assay; format: cell-based, herpes simplex virus 1; conditions: Human alphaherpesvirus 1; HSV-1 (MOI=0.001) in Vero 76 cells, 40–48 hours at 37° C., viral DNA by hybridization/chemiluminescence
Description: Vero 76 cells were maintained in MEM with Earle's salts, L-glutamine, 8% FBS (Hyclone, A-1111-L) and 100 units/mL Penicillin-100 μg/mL Streptomycin. For assay conditions, FBS was reduced to 2%. Cells are seeded into 96-well tissue culture plates at a density of 5×10^4 cells/well after being incubated for 45 min at 37° C. in the presence of HSV-1 or HSV-2 (MOI=0.001). Test compounds are added to the wells and the plates are incubated at 37° C. for 40–48 hours. Cell lysates are prepared as follows: media was removed and replaced with 150 μL/well 0.2 N NaOH with 1% Igepal CA 630 or NP-40. Plates were incubated up to 14 days at room temperature in a humidified chamber to prevent evaporation.
For the detection probe, a gel-purified, digoxigenin-labeled, […] PCR fragment of the HSV UL-15 sequence was utilized. PCR conditions included 0.5 μM primers, 180 μM dTP, 20 μM dUTP-digoxigenin (Boehringer Mannheim 1558706), 200 μM each of dATP, dCTP, and dGTP, 1×PCR Buffer II (Perkin Elmer), 2.5 mM MgCl2, 0.025 units/μL of AmpliTaq Gold polymerase (Perkin Elmer), and 5 ng of gel-purified HSV DNA per 100 μL Extension conditions were 10 min at 95° C., followed by 30 cycles of 95° C. for 1 min, 55° C. for 30 sec, and 72° C. for 2 min. The amplification was completed with a 10-min incubation at 72° C. Primers were selected to amplify a 728 bp probe spanning a section of the HSV1 UL15 open reading frame (nucleotides 249–977). Single-stranded transcripts were purified with Promega M13 Wizard kits. The final product was mixed 1:1 with a mixture of 6 M GuSCN, 100 mM EDTA and 200 μg/mL herring sperm DNA and stored at 4° C.
The capture DNA plasmid (HSV UL13 region in pUC) was linearized by cutting with Xba I, denatured for 15 min at 95° C. and diluted immediately into Reacti-Bind DNA Coating Solution (Pierce, 17250, diluted 1:1 with TE buffer, pH 8) at 1 ng/μL 75 μL/well were added to Corning (#3922 or 9690) white 96-well plates and incubated at room temperature for at least 4 hrs before washing twice with 300 μL/well 0.2×SSC/0.05% Tween-20 (SSC/T buffer). The plates were then incubated overnight at room temperature with 150 μL/well 0.2 N NaOH, 1% IGEPAL and 10 μg/mL herring sperm DNA.
Twenty-seven (27) μL of cell lysate was combined with 45 μL of hybridization solution (final concentration: 3M GuSCN, 50 mM EDTA, 100 μg/ml salmon sperm DNA, 5× Denhardt's solution, 0.25×APE, and 5 ng of the digoxigenin-labeled detection probe). APE is 1.5 M NH4-acetate, 0.15 M ammonium phosphate monobasic, and 5 mM EDTA adjusted to pH 6.0. Mineral oil (50 μL) was added to prevent evaporation. The hybridization plates were incubated at 95° C. for 10 minutes to denature the DNA, then incubated at 42° C. overnight. The wells were washed 6× with 300 μL/well SSC/T buffer then incubated with 75 μL/well anti-digoxigenin-HRP-conjugated antibody (Boehringer Mannheim 1207733, 1:5000 in TE) for 30 min at room temperature. The wells were washed 6× with 300 μL/well with PBS/0.05% Tween-20 before 75 μL/well SuperSignal LBA substrate (Pierce) was added. The plates were incubated at room temperature for 30 minutes and chemiluminescence was measured in a Wallac Victor reader.
The following results were obtained for HSV-1.

Row | SMILES | IC50 [µM]
1 | CSc1cccc2c(-c3ccnc(NC4CCCC4)n3)c(CC(C)C)nn12 [Example 8, N-Cyclopentyl-4-[2-isobutyl-7-(methylthio)pyrazolo[1,5-a]pyridin-3-yl]pyrimidin-2-amine] | 3.8
2 | OC(c1ccccc1)c1nn2ccccc2c1-c1ccnc(NC2CCCC2)n1 (stereo not shown) [Example 14, {3-[2-(Cyclopentylamino)-4-pyrimidinyl]pyrazolo[1,5-a]pyridin-2-yl}(phenyl)methanol] | 2.5
3 | CSc1nccc(-c2c(CC(C)C)nn3ccccc23)n1 [Example 5, 2-Isobutyl-3-[2-(methylthio)pyrimidin-4-yl]pyrazolo[1,5-a]pyridine] | 21
4 | CSc1nccc(-c2c(C=O)nn3ccccc23)n1 [Example 12, 3-[2-(Methylthio)pyrimidin-4-yl]pyrazolo[1,5-a]pyridine-2-carbaldehyde] | > 5
5 | CCCc1nn2c(Cl)cccc2c1-c1ccnc(F)c1 [Example 3, 7-Chloro-3-(2-fluoropyridin-4-yl)-2-propylpyrazolo[1,5-a]pyridine] | 37
6 | COCc1nn2ccccc2c1-c1ccnc(NC2CCCC2)n1 [Example 20, N-Cyclopentyl-4-[2-(methoxymethyl)pyrazolo[1,5-a]pyridin-3-yl]-2-pyrimidinamine] | 15
7 | CC(C)Cc1nn2ccccc2c1-c1ccnc(NC2CCCC2)n1 [Example 7, N-Cyclopentyl-4-(2-isobutylpyrazolo[1,5-a]pyridin-3-yl)pyrimidin-2-amine] | 18
8 | CSc1nccc(-c2c(CNC(C)C)nn3ccccc23)n1 [Example 24, N-({3-[2-(Methylsulfanyl)-4-pyrimidinyl]pyrazolo[1,5-a]pyridin-2-yl}methyl)-2-propanamine] | 2.1
9 | CCCc1nn2ccccc2c1-c1ccnc(F)c1 [Example 1, 3-(2-Fluoropyridin-4-yl)-2-propylpyrazolo[1,5-a]pyridine] | > 40
10 | CC(C)Cc1nn2c(NC3CCCC3)cccc2c1-c1ccnc(NC2CCCC2)n1 [Example 10, N-Cyclopentyl-3-[2-(cyclopentylamino)pyrimidin-4-yl]-2-isobutylpyrazolo[1,5-a]pyridin-7-amine] | 0.5
11 | O=C(c1ccccc1)c1nn2ccccc2c1-c1ccnc(NC2CCCC2)n1 [Example 15, {3-[2-(Cyclopentylamino)-4-pyrimidinyl]pyrazolo[1,5-a]pyridin-2-yl}(phenyl)methanone] | 7
12 | c1ccc(Cc2nn3c(NC4CCCC4)cccc3c2-c2ccnc(NC3CCCC3)n2)cc1 [Example 19, N-{4-[2-Benzyl-7-(cyclopentylamino)pyrazolo[1,5-a]pyridin-3-yl]-2-pyrimidinyl}-N-cyclopentylamine] | 0.8
13 | CCCc1nn2ccccc2c1-c1ccnc(NC2CCCC2)c1 [Example 2, N-Cyclopentyl-4-(2-propylpyrazolo[1,5-a]pyridin-3-yl)pyridin-2-amine] | 8
14 | COCc1nn2c(NC3CCCC3)cccc2c1-c1ccnc(NC2CCCC2)n1 [Example 22, N-Cyclopentyl-3-[2-(cyclopentylamino)-4-pyrimidinyl]-2-(methoxymethyl)pyrazolo[1,5-a]pyridin-7-amine] | 1.2
15 | CC(C)Cc1nn2c([S+](C)[O-])cccc2c1-c1ccnc(NC2CCCC2)n1 (stereo not shown) [Example 9, N-Cyclopentyl-4-[2-isobutyl-7-(methylsulfinyl)pyrazolo[1,5-a]pyridin-3-yl]pyrimidin-2-amine] | 1.9
16 | CC(C)NCc1nn2ccccc2c1-c1ccnc(NC2CCCC2)n1 [Example 25, N-Cyclopentyl-4-{2-[(isopropylamino)methyl]pyrazolo[1,5-a]pyridin-3-yl}-2-pyrimidinamine] | 27
17 | c1ccc(Cc2nn3ccccc3c2-c2ccnc(NC3CCCC3)n2)cc1 [Example 17, 4-(2-Benzylpyrazolo[1,5-a]pyridin-3-yl)-N-cyclopentyl-2-pyrimidinamine] | 2
18 | CCCc1nn2c(NC3CCCC3)cccc2c1-c1ccnc(NC2CCCC2)c1 [Example 4, N-Cyclopentyl-3-[2-(cyclopentylamino)pyridin-4-yl]-2-propylpyrazolo[1,5-a]pyridin-7-amine] | 0.9
19 | O=C(c1ccccc1)c1nn2c(NC3CCCC3)cccc2c1-c1ccnc(NC2CCCC2)n1 [Example 16, {7-(Cyclopentylamino)-3-[2-(cyclopentylamino)-4-pyrimidinyl]-pyrazolo[1,5-a]pyridin-2-yl}(phenyl)methanone] | 0.4
20 | COCc1nn2c(SC)cccc2c1-c1ccnc(NC2CCCC2)n1 [Example 21, N-Cyclopentyl-4-[2-(methoxymethyl)-7-(methylsulfanyl)pyrazolo[1,5-a]pyridin-3-yl]-2-pyrimidinamine] | 4.6

The next lines start with the values.

Row | IC50 [µM] | SMILES
21 | > 5 | CC(C)NCCCc1nn2c(NC3CCCC3)cccc2c1-c1ccnc(NC2CCCC2)n1 [Example 28, N-Cyclopentyl-3-[2-(cyclopentylamino)-4-pyrimidinyl]-2-[3-(isopropylamino)propyl]pyrazolo[1,5-a]pyridin-7-amine]
22 | 4.7 | COCCNc1cccc2c(-c3ccnc(NC4CCCC4)n3)c(COCCOC)nn12 [Example 30, 3-[2-(Cyclopentylamino)-4-pyrimidinyl]-2-[(2-methoxyethoxy)methyl]-N-(2-methoxyethyl)pyrazolo[1,5-a]pyridin-7-amine]
23 | 1.5 | COCCOCc1nn2c(NC3CCCC3)cccc2c1-c1ccnc(NC2CCCC2)n1 [Example 31, N-Cyclopentyl-3-[2-(cyclopentylamino)-4-pyrimidinyl]-2-[(2-methoxyethoxy)methyl]pyrazolo[1,5-a]pyridin-7-amine]
24 | > 2.5 | CC(C)NCc1nn2c(NC3CCCC3)cccc2c1-c1ccnc(NC2CCCC2)n1 [Example 26, N-Cyclopentyl-3-[2-(cyclopentylamino)-4-pyrimidinyl]-2-[(isopropylamino)methyl]pyrazolo[1,5-a]pyridin-7-amine]
25 | > 40 | CSc1nccc(-c2c(C3CC3)nn3ccccc23)n1 [Example 34, 2-Cyclopropyl-3-[2-(methylthio)pyrimidin-4-yl]pyrazolo[1,5-a]pyridine]
26 | 4.4 | CC(C)c1nn2ccccc2c1-c1ccnc(NC2CCCC2)n1 [Example 32, N-Cyclopentyl-4-(2-isopropylpyrazolo[1,5-a]pyridin-3-yl)pyrimidin-2-amine]
27 | 23 | CC(C)NCCCc1nn2c(Cl)cccc2c1-c1ccnc(NC2CCCC2)n1 [Example 27, 4-{7-Chloro-2-[3-(isopropylamino)propyl]pyrazolo[1,5-a]pyridin-3-yl}-N-cyclopentyl-2-pyrimidinamine]
28 | 3.1 | c1ccn2nc(C3CC3)c(-c3ccnc(NC4CCCC4)n3)c2c1 [Example 35, N-Cyclopentyl-4-(2-cyclopropylpyrazolo[1,5-a]pyridin-3-yl)pyrimidin-2-amine]
29 | 0.9 | c1cc(NC2CCCC2)n2nc(C3CC3)c(-c3ccnc(NC4CCCC4)n3)c2c1 [Example 36, N-Cyclopentyl-3-[2-(cyclopentylamino)pyrimidin-4-yl]-2-cyclopropylpyrazolo[1,5-a]pyridin-7-amine]
30 | 2 | CC(C)c1nn2c(NC3CCCC3)cccc2c1-c1ccnc(NC2CCCC2)n1 [Example 33, N-Cyclopentyl-3-[2-(cyclopentylamino)pyrimidin-4-yl]-2-isopropylpyrazolo[1,5-a]pyridin-7-amine]
31 | 23 | COCCOCc1nn2c(Cl)cccc2c1-c1ccnc(NC2CCCC2)n1 [Example 29, 4-{7-Chloro-2-[(2-methoxyethoxy)methyl]pyrazolo[1,5-a]pyridin-3-yl}-N-cyclopentyl-2-pyrimidinamine]
